Experimental data from ChEMBL document CHEMBL1148076, “Cucurbitacins: differential cytotoxicity, dereplication and first isolation from Gonystylus keithii” (1994).

Columns and labels:
Type in all cases: functional
LOX IMVI = test: Growth inhibition of human LOXIMVI cells
DU-145 = test: Growth inhibition of human DU145 cells
RXF 393 = test: Growth inhibition of human RXF393 cells
SNB-75 = test: Growth inhibition of human SNB75 cells
HCT-116 = test: Growth inhibition of human HCT116 cells
OVCAR-5 = test: Growth inhibition of human OVCAR5 cells
NCI-H460 = test: Growth inhibition of human NCI-H460 cells
SF-268 = test: Growth inhibition of human SF268 cells
HCT-15 = test: Growth inhibition of human HCT15 cells
HOP-62 = test: Growth inhibition of human HOP62 cells
EKVX = test: Growth inhibition of human EKVX cells
OVCAR-8 = test: Growth inhibition of human OVCAR8 cells
A498 = test: Growth inhibition of human A498 cells
OVCAR-3 = test: Growth inhibition of human OVCAR-3 cells
SNB-19 = test: Growth inhibition of human SNB19 cells
KM12 = test: Growth inhibition of human KM12 cells
SK-MEL-5 = test: Growth inhibition of human SK-MEL-5 cells
COLO 205 = test: Growth inhibition of human COLO205 cells
NCI-H226 = test: Growth inhibition of human NCI-H226 cells
A549 = test: Growth inhibition of human A549 cells
MCF7 = test: Growth inhibition of human MCF7 cells
TK-10 = test: Growth inhibition of human TK10 cells
NCI-H23 = test: Growth inhibition of human NCI-H23 cells
PC-3 = test: Growth inhibition of human PC3 cells
Malme-3M = test: Growth inhibition of human MALME-3M cells
[1] = Growth inhibition of human Hs 578T cells
SK-OV-3 = test: Growth inhibition of human SKOV3 cells
HOP-92 = test: Growth inhibition of human HOP92 cells
UO-31 = test: Growth inhibition of human UO31 cells
SF-295 = test: Growth inhibition of human SF295 cells
SK-MEL-2 = test: Growth inhibition of human SK-MEL-2 cells
T47D = test: Growth inhibition of human T47D cells
[2] = Growth inhibition of human […] cells
SK-MEL-28 = test: Growth inhibition of human SK-MEL-28 cells
UACC-62 = test: Growth inhibition of human UACC62 cells
HT-29 = test: Growth inhibition of human HT-29 cells
SN12C = test: Growth inhibition of human SN12C cells
U-251 = test: Growth inhibition of human U251 cells
HL-60(TB) = test: Growth inhibition of human HL-60(TB) cells
MDA-MB-435 = test: Growth inhibition of human MDA-MB-435 cells
786-0 = test: Growth inhibition of human 786-0 cells
ACHN = test: Growth inhibition of human ACHN cells
UACC-257 = test: Growth inhibition of human UACC257 cells
SR = test: Growth inhibition of human SR cells
MOLT-4 = test: Growth inhibition of human MOLT4 cells
SF-539 = test: Growth inhibition of human SF539 cells
OVCAR-4 = test: Growth inhibition of human OVCAR4 cells
CAKI-1 = test: Growth inhibition of human Caki1 cells
CCRF-CEM = test: Growth inhibition of human CCRF-CEM cells
IGROV-1 = test: Growth inhibition of human IGROV1 cells
HCC 2998 = test: Growth inhibition of human HCC2998 cells
NCI/ADR-RES = test: Growth inhibition of human NCI/ADR-RES cells
BT-549 = test: Growth inhibition of human BT549 cells
NCI-H522 = test: Growth inhibition of human NCI-H522 cells
M14 = test: Growth inhibition of human M14 cells
MDA-MB-231 = test: Growth inhibition of human MDA-MB-231 cells
NCI-H322M = test: Growth inhibition of human NCI-H322M cells
K562 = test: Growth inhibition of human K562 cells
SW-620 = test: Growth inhibition of human SW620 cells
MDA-N = test: Growth inhibition of human MDA-N cells
[3] = read-out: pLC50 (the source's name) (converted)

## CC(=O)OC(C)(C)/C=C/C(=O)[C@](C)(O)[C@H]1[C@H](O)C[C@@]2(C)[C@@H]3CC=C4[C@@H](C=C(O)C(=O)C4(C)C)[C@]3(C)C(=O)C[C@]12C [CUCURBITACIN E]
LOX IMVI; [3]
  CC50: 53.7 nM
LOX IMVI; read-out: pTGI (converted)
  TGI: 19.1 nM
DU-145; [3]
  CC50: 12900 nM
DU-145; read-out: pTGI (converted)
  TGI: 2090 nM
RXF 393; [3]
  CC50: 347 nM
RXF 393; read-out: pTGI (converted)
  TGI: 49 nM
SNB-75; [3]
  CC50: 17000 nM
SNB-75; read-out: pTGI (converted)
  TGI: 603 nM
HCT-116; [3]
  CC50: 1820 nM
HCT-116; read-out: pTGI (converted)
  TGI: 372 nM
OVCAR-5; [3]
  CC50: 18200 nM
OVCAR-5; read-out: pTGI
  TGI: 5250 nM
NCI-H460; [3]
  CC50: 19100 nM
NCI-H460; read-out: pTGI (converted)
  TGI: 2190 nM
SF-268; [3]
  CC50: 12900 nM
SF-268; read-out: pTGI (converted)
  TGI: 100 nM
HCT-15; [3]
  CC50: 11000 nM
HCT-15; read-out: pTGI (converted)
  TGI: 537 nM
HOP-62; [3]
  CC50: 6920 nM
HOP-62; read-out: pTGI (converted)
  TGI: 309 nM
EKVX; [3]
  CC50: 15800 nM
EKVX; read-out: pTGI (converted)
  TGI: 1100 nM
OVCAR-8; [3]
  CC50: 15100 nM
OVCAR-8; read-out: pTGI (converted)
  TGI: 2290 nM
A498; [3]
  CC50: 63.1 nM
A498; read-out: pTGI (converted)
  TGI: 25.7 nM
OVCAR-3; [3]
  CC50: 3720 nM
OVCAR-3; read-out: pTGI (converted)
  TGI: 83.2 nM
SNB-19; [3]
  CC50: 1510 nM
SNB-19; read-out: pTGI (converted)
  TGI: 209 nM
KM12; [3]
  CC50: 15100 nM
KM12; read-out: pTGI (converted)
  TGI: 4790 nM
SK-MEL-5; [3]
  CC50: 759 nM
SK-MEL-5; read-out: pTGI (converted)
  TGI: 120 nM
COLO 205; [3]
  CC50: 17000 nM
COLO 205; read-out: pTGI (converted)
  TGI: 5750 nM
NCI-H226; [3]
  CC50: 9770 nM
NCI-H226; read-out: pTGI (converted)
  TGI: 91.2 nM
A549; [3]
  CC50: 33900 nM
A549; read-out: pTGI (converted)
  TGI: 5010 nM
MCF7; [3]
  CC50: 8910 nM
MCF7; read-out: pTGI (converted)
  TGI: 3240 nM
TK-10; [3]
  CC50: 3310 nM
TK-10; read-out: pTGI (converted)
  TGI: 129 nM
NCI-H23; [3]
  CC50: 10000 nM
NCI-H23; read-out: pTGI (converted)
  TGI: 2190 nM
PC-3; [3]
  CC50: 6760 nM
PC-3; read-out: pTGI (converted)
  TGI: 257 nM
Malme-3M; [3]
  CC50: 4370 nM
Malme-3M; read-out: pTGI (converted)
  TGI: 79.4 nM
[1]; [3]
  CC50: 34700 nM
[1]; read-out: pTGI (converted)
  TGI: 89.1 nM
SK-OV-3; [3]
  CC50: 12000 nM
SK-OV-3; read-out: pTGI (converted)
  TGI: 550 nM
HOP-92; [3]
  CC50: 191 nM
HOP-92; read-out: pTGI (converted)
  TGI: 63.1 nM
UO-31; [3]
  CC50: 2290 nM
UO-31; read-out: pTGI (converted)
  TGI: 77.6 nM
SF-295; [3]
  CC50: 5620 nM
SF-295; read-out: pTGI (converted)
  TGI: 81.3 nM
SK-MEL-2; [3]
  CC50: 417 nM
SK-MEL-2; read-out: pTGI (converted)
  TGI: 25.7 nM
T47D; [3]
  CC50: 12900 nM
T47D; read-out: pTGI (converted)
  TGI: 2000 nM
[2]; [3]
  CC50: 34700 nM
[2]; read-out: pTGI (converted)
  TGI: 8130 nM
SK-MEL-28; [3]
  CC50: 4170 nM
SK-MEL-28; read-out: pTGI (converted)
  TGI: 77.6 nM
UACC-62; [3]
  CC50: 1910 nM
UACC-62; read-out: pTGI (converted)
  TGI: 347 nM
HT-29; [3]
  CC50: 10000 nM
HT-29; read-out: pTGI (converted)
  TGI: 1820 nM
SN12C; [3]
  CC50: 12900 nM
SN12C; read-out: pTGI (converted)
  TGI: 1410 nM
U-251; [3]
  CC50: 3470 nM
U-251; read-out: pTGI (converted)
  TGI: 646 nM
HL-60(TB); [3]
  CC50: 34700 nM
HL-60(TB); read-out: pTGI (converted)
  TGI: 6610 nM
MDA-MB-435; [3]
  CC50: 22900 nM
MDA-MB-435; read-out: pTGI (converted)
  TGI: 2090 nM
786-0; [3]
  CC50: 4070 nM
786-0; read-out: pTGI (converted)
  TGI: 129 nM
ACHN; [3]
  CC50: 2510 nM
ACHN; read-out: pTGI (converted)
  TGI: 141 nM
UACC-257; [3]
  CC50: 11000 nM
UACC-257; read-out: pTGI (converted)
  TGI: 1200 nM
SR; [3]
  CC50: 34700 nM
SR; read-out: pTGI (converted)
  TGI: 14100 nM
MOLT-4; [3]
  CC50: 34700 nM
MOLT-4; read-out: pTGI (converted)
  TGI: 15100 nM
SF-539; [3]
  CC50: 331 nM
SF-539; read-out: pTGI (converted)
  TGI: 18.2 nM
OVCAR-4; [3]
  CC50: 10000 nM
OVCAR-4; read-out: pTGI (converted)
  TGI: 417 nM
CAKI-1; [3]
  CC50: 79.4 nM
CAKI-1; read-out: pTGI (converted)
  TGI: 20.9 nM
CCRF-CEM; [3]
  CC50: 34700 nM
CCRF-CEM; read-out: pTGI (converted)
  TGI: 6310 nM
IGROV-1; [3]
  CC50: 3890 nM
IGROV-1; read-out: pTGI (converted)
  TGI: 19.9 nM
HCC 2998; [3]
  CC50: 10000 nM
HCC 2998; read-out: pTGI (converted)
  TGI: 912 nM
NCI/ADR-RES; [3]
  CC50: 33900 nM
NCI/ADR-RES; read-out: pTGI (converted)
  TGI: 8130 nM
BT-549; [3]
  CC50: 151 nM
BT-549; read-out: pTGI (converted)
  TGI: 12.9 nM
NCI-H522; [3]
  CC50: 3310 nM
NCI-H522; read-out: pTGI (converted)
  TGI: 81.3 nM
M14; [3]
  CC50: 6760 nM
M14; read-out: pTGI (converted)
  TGI: 646 nM
MDA-MB-231; [3]
  CC50: 891 nM
MDA-MB-231; read-out: pTGI (converted)
  TGI: 53.7 nM
NCI-H322M; [3]
  CC50: 12000 nM
NCI-H322M; read-out: pTGI (converted)
  TGI: 3020 nM
K562; [3]
  CC50: 32400 nM
K562; read-out: pTGI (converted)
  TGI: 15100 nM
SW-620; [3]
  CC50: 19100 nM
SW-620; read-out: pTGI (converted)
  TGI: 2090 nM
MDA-N; [3]
  CC50: 14100 nM
MDA-N; read-out: pTGI (converted)
  TGI: 1910 nM
